# Laboratory results taken from ChEMBL document CHEMBL5365474, “Discovery of a First-in-Class CD38 Inhibitor for the Treatment of Mitochondrial Myopathy” (J Med Chem, 2023).
# Assay: physchem
# Settings: PBS, pH 7.4
structure (smiles),measurement,value
O=C(Nc1cccnc1)c1cc(C(F)(F)F)nc(-n2ccnc2)n1,solubility at 2 h,48 µM
